From US11911393B2, “Non-catalytic substrate-selective p38alpha-specific MAPK inhibitors with endothelial-stabilizing and anti-inflammatory activity, and methods of use thereof” (University of Maryland, Baltimore, priority 2016, dated 2024)
“Also recorded” adds a separate entry of the source. Where two headings read alike, the source gives them in different places.

Tests used:
[1] = tested on: LPS/hyperthermia-induced ALI in CD1 mice; assay: Mouse i.t. LPS/FRH-induced acute lung injury model; conditions: for reduction of lavage neutrophil content vs. DMSO-treated controls: mouse LPS/hyperthermia ALI, 24 h
[2] = biological target: T1, p38β (Homo sapiens, UniProt Q15759); assay: STD-NMR, binding to p38β; conditions: 200 μM UM101, 5 μM p38 protein
T1 construct: HA (N); made in house; host or cells: E. coli BL21
T1 sequence (Q15759 whole entry): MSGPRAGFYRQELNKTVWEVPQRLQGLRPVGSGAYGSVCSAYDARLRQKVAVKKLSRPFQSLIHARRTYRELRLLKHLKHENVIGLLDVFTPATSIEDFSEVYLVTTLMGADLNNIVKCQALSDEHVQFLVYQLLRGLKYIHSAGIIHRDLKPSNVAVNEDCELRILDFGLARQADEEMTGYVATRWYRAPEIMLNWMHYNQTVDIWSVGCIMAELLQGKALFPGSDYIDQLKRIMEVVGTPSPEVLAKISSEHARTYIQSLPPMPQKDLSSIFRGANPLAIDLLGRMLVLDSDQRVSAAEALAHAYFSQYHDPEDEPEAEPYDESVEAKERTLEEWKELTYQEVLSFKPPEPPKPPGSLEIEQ
Procedure: (§1) Spectra were recorded on an Agilent DD2 500-MHz spectrometer equipped with a 5-mm inverse HFCN probe head at 300 K. During each transient, the protein was saturated with a series of 58 […]-shaped pulses (50 ms, 1 ms delay between pulses) using the vendor-supplied STD-ES pulse sequence, for a total saturation time of 3 seconds. The on-resonance irradiation of protein was done at 0.5 ppm and off-resonance irradiation at 30 ppm. The vendor-supplied WATERGATE pulse sequence was used to suppress the water signal in the STD spectrum. The on-resonance and off-resonance pulse sequences were subtracted internally. A total of 16,384 transients were collected for each STD experiment with a 1 second delay between acquisitions, 6000 Hz spectral width, and 1.3 second acquisition time.

[3] = biological target: ERK2 (Homo sapiens, UniProt P28482); assay: DSF, binding to ERK2
Sequence of ERK2 (P28482 whole entry, species assumed): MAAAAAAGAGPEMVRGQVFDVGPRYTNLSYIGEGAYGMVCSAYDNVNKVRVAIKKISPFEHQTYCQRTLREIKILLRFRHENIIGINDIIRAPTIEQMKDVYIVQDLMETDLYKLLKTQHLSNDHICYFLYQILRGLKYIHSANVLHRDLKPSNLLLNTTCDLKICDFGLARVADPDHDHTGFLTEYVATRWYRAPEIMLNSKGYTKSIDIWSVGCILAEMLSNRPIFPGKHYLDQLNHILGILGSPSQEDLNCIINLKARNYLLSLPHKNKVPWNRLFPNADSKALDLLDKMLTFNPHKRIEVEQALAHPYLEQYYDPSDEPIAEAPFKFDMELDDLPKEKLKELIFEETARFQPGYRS

[4] = biological target: T2, p38α mutant (R49K/HL107-8TF/K165R) (Homo sapiens, UniProt Q16539, H107T/K165R/L108F/R49K); assay: DSF, binding to target-disrupted p38α mutant; conditions: compared with wild-type p38α
T2 construct: made in house; host or cells: E. coli BL21
T2 sequence (Q16539 whole entry R49K/H107T/L108F/K165R): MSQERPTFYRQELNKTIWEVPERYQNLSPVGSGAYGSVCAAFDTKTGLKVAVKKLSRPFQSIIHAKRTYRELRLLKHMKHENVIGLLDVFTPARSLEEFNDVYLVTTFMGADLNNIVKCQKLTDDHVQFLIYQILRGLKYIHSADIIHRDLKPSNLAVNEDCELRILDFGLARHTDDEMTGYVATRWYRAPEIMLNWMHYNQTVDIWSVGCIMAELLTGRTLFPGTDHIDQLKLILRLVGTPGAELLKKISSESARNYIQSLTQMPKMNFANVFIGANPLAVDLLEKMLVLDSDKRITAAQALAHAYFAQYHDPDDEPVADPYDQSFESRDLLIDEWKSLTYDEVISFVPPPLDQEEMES

[5] = tested on: HMVECL monolayers; assay: Endothelial permeability assay (10 kDa dextran flux); assay type: cell-based, human; conditions: for reduction of TNFα/hyperthermia-induced permeability increase: HMVECL, 10 kDa dextran, TNFα and 39.5° C. for 6 h
Procedure: Endothelial permeability assay: Permeability of HMVECL monolayers was assessed by measuring transendothelial flux of 10 kDa dextran conjugated to Cascade blue fluorescent dye for 30 min at 37° C. in Matrigel-coated 3 μm pore size Transwell plates.

[6] = biological target: T3, mutated p38α (Homo sapiens, UniProt Q16539, H107T/K165R/L108F/R49K); assay: STD-NMR, binding to mutated p38α; conditions: 200 μM UM101, 5 μM p38 protein
T3 construct: made in house; host or cells: E. coli BL21
T3 sequence (Q16539 whole entry R49K/H107T/L108F/K165R): as above
Procedure: as §1

[7] = biological target: T4, p38α (Homo sapiens, UniProt Q16539); assay: STD-NMR, binding to p38α; conditions: 200 μM UM101, 5 μM p38 protein
T4 construct: made in house; host or cells: E. coli BL21
T4 sequence (Q16539 whole entry): as the sequence (Q16539 whole entry R49K/H107T/L108F/K165R) above, with K49R, T107H, F108L, R165K counted along it
Procedure: as §1

[8] = tested on: IL-8-directed neutrophil TEM through HMVECLs; assay: Neutrophil transendothelial migration (TEM) assay; assay type: cell-based, human; conditions: HMVECLs preincubated at 39.5° C. for 6 h
[9] = tested on: p38-dependent phosphorylation of MK2 and Stat-1 in HeLa cells; assay: Inhibition of substrate phosphorylation (immunoblot); assay type: cell-based, human; conditions: 10 μM SB203580 or 50 μM UM101 for 30 min
Text: Cell extracts prepared in RIPA buffer containing protease and phosphatase inhibitors were resolved by SDS-PAGE, transferred to PVDF membrane, blocked with 5% nonfat dry milk, probed with primary antibodies against phosphorylated MK2 and Stat-1, and total p38α as a loading control. Bands were detected using secondary antibodies conjugated to infrared fluorophores and infrared fluorescence imaging (Odyssey; LICOR).

[10] = tested on: HMVECLs; assay: Cytotoxicity assay (MTS, LDH release); assay type: cell-based, human; conditions: 100 μM for 48 h
Procedure: Cytotoxicity of HMVECL exposed to 10-100 μM of each compound is analyzed by MTS assay (Promega), LDH release (Promega), and immunoblotting for activated caspase-3 (Cell Signaling).
Cytotoxicity assay: Cytotoxicity was monitored in parallel HMVEC-L monolayers established in 96-well culture plates using a colorimetric assay that measured reduction of 3-(4,5-dimethylthiazol-2-yl)-5-(3-carboxymethoxyphenyl)-2-(4-sulfophenyl)-2H-tetrazolium (MTS) to a formazan dye (CellTiter 96™; Promega; Madison, WI) according to the manufacturer's protocol and quantifying product formation by measuring absorption at 490 nm.

[11] = biological target: T5, unphosphorylated recombinant human p38α (Homo sapiens, UniProt Q16539); assay: Differential scanning fluorimetry (DSF), binding to p38α
T5 construct: made in house; host or cells: E. coli BL21
T5 sequence (Q16539 whole entry): as the sequence (Q16539 whole entry R49K/H107T/L108F/K165R) above, with K49R, T107H, F108L, R165K counted along it

[12] = tested on: LPS-induced cytokine expression in PMA-differentiated THP1 cells; assay: LPS-induced cytokine expression, PCR-based cytokine array; assay type: cell-based, human; conditions: 25 μM SB203580 or 10, 25, or 100 μM UM101
[13] = biological target: T1, p38β; assay: DSF, binding to p38β; conditions: DSF melting temperature, concentration series

`O=C(Nc1ccc(CN2CCS(=O)(=O)CC2)cc1)c1ccc(Cl)cc1` [UM101, 4-chloro-N-{4-[(1,1-dioxo-1 lambda˜6˜,4-thiazinan-4-yl)methyl]phenyl}benzamide] was tested, and the “reduction of lavage neutrophil content vs. DMSO-treated controls” value ([1]; 100 μg i.p.) was 44.4%, the “reduction of lavage neutrophil content vs. DMSO-treated controls” value ([1]; 300 μg i.p.) was 49.5% and the “reduction of lavage neutrophil content vs. DMSO-treated controls” value ([1]; 500 μg i.p.) was 55.3%. For the same molecule, the “reduction of lavage neutrophil content vs. DMSO-treated controls” value ([1]; 1000 μg i.p.) was 54%, the “tolerability and potency compared with SB203580 in experimental ALI, in words” value ([1]; mouse LPS/FRH-induced ALI) was “well tolerated and more potent than SB203580 in mitigating experimental ALI; also recorded: more potent than SB203580 in reducing neutrophil and protein accumulation in BAL” and the “mice that died within 24 h” value ([1]; single i.p. injection of 100-1000 μg UM101, 1000 μg UM60 or 1000 μg SB203580, 30 min before i.t. 50 μg LPS and hyperthermia) was “All sixteen UM101-pretreated mice survived”. For the same molecule, the “interaction with p38β in STD-NMR, in words” value [2] was “much weaker”, the ΔTm at 100 µM ([3]; 100 μM, change in melting temperature relative to DMSO control in DSF assay) was 0.0175 °C and the “stabilization of ERK2 in DSF (binding), in words” value ([3]; DSF, test compounds at 10-100 μM) was “not ERK2”. The “binding to p38α mutant with four of ten target pocket amino acids substituted, in words” value [4] was “abrogated UM101 binding; also recorded: no UM101-binding”, the “reduction of TNFα/hyperthermia-induced permeability increase” value ([5]; 10 μM) was 74% and the “reduction of TNFα/hyperthermia-induced permeability increase” value ([5]; 25 μM) was 89%. The “reduction of TNFα/hyperthermia-induced permeability increase” value ([5]; 100 μM) was over 100%, the “endothelial barrier stabilization compared with SB203580, in words” value ([5]; HMVECL barrier assays (FIG. 2a, 2b)) was “more effectively stabilized endothelial barriers than SB203580” and the “interaction with mutated p38α in STD-NMR, in words” value [6] was “much weaker”. For the same molecule, the “interaction with p38α in STD-NMR, in words” value [7] was “confirmed specific UM101 binding to p38α; also recorded: protons in both aromatic rings of UM101 interact with p38α”, the “reduction of hyperthermia-augmented neutrophil TEM” value ([8]; 10 μM) was 95% and the “reduction of hyperthermia-augmented neutrophil TEM” value ([8]; 25 μM) was “less than baseline levels”. For the same molecule, the “reduction of hyperthermia-augmented neutrophil TEM” value ([8]; 50 μM) was “less than baseline levels”, the “anisomycin-stimulated phosphorylation of MK2, in words” value [9] was “partial inhibition of MK2 phosphorylation” and the “anisomycin-stimulated phosphorylation of Stat-1, in words” value [9] was “reduced”. The “anisomycin-stimulated phosphorylation of MK2, in words” value ([9]; listed as UM1010) was “reduced”, the “toxicity in LDH release and MTS assays” value [10] was “Neither compound was toxic” and the ΔTm at 100 µM ([11]; 100 μM, change in melting temperature relative to DMSO control in DSF assay, read-out: p38α ΔTm (° C.) @100 μM) was 0.667 °C. For the same molecule, the “stabilization of p38α in DSF (binding), in words” value ([11]; DSF melting temperature, concentration series) was “concentration-dependent increase in melting temperature of p38α; also recorded: only stabilized p38α”, the ΔTm at 100 µM ([11]; added at 100 μM, DSF, read-out: increase in melting temperature of p38α) was about 0.7 °C and the “LPS-stimulated genes of the array (16) whose expression was inhibited, in words” value [12] was “inhibited expression of all SB203580-inhibited genes except TNFSF9”. The “stabilization of p38β in DSF (binding), in words” value [13] was “not p38β; also recorded: only stabilized p38α”.
